Test results published in patent US9120804B2, “8-substituted 2-amino-[1,2,4] triazolo [1, 5-A] pyrazines as Syk tryrosine kinase inhibitors and GCN2 serin kinase inhibitors” (Merck Patent GmbH, priority 2012, dated 2015).

What follows are molecules tested against T1, SYK (Homo sapiens, UniProt P43405) (assay: SYK flash plate assay (enzyme assay)).
T1 construct: 2.5 nM SYK, 400 nM Biotin-Aha-Aha-KEDPDYEWPSAKK
Type: biochemical
How it was run: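 Radiometric Flashplate format: biotinylated peptide substrate (400 nM) and 33P-labelled ATP (10 μM) react with 2.5 nM enzyme for 1 hour at 30 °C in Hepes buffer, pH 7.5. After EDTA quench and washing, counts are taken; staurosporine defines non-specific signal, and IC50 values are derived.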

Which IC50 does the source give for `CC1(C)C(=O)Nc2cc(Nc3nc4c(N5C[C@H](O)C[C@@H]5c5ccccc5)nccn4n3)ccc21` (racemic) [C143, 6-[8-(4-hydroxy-2-phenyl-pyrrolidin-1-yl)-[1,2,4]triazolo[1,5-a]pyrazin-2-ylamino]-3,3-dimethyl-1,3-dihydro-indol-2-one] here?
The IC50 was 100 to 300 nM.

For `CC1(C)C(=O)Nc2cc(Nc3nc4c(N5CCCCCC5)nccn4n3)ccc21` [E57, 6-(8-azepan-1-yl-[1,2,4]triazolo[1,5-a]pyrazin-2-ylamino)-3,3-dimethyl-1,3-dihydro-indol-2-one], which IC50 is on record?
The IC50 was under 100 nM.

How did the IC50 turn out when `CC1(C)C(=O)Nc2cc(Nc3nc4c(N5C6CCC5COC6)nccn4n3)ccc21` [C96, 3,3-dimethyl-6-[8-(3-oxa-8-aza-bicyclo[3.2.1 l]oct-8-yl)-[1,2,4]triazolo[1,5-a]pyrazin-2-ylamino]-1,3-dihydro-indol-2-one] was run?
The IC50 was 100 to 300 nM.

With `CC1(C)CCNc2cc(Nc3nc4c(N5CCC6(CCNC6)C5)nccn4n3)ccc21` (stereo not drawn) [E9, [8-(2,7-diaza-spiro[4.4]non-2-yl)-[1,2,4]triazolo[1,5-a]pyrazin-2-yl]-(4,4-dimethyl-1,2,3,4-tetrahydro-quinolin-7-yl)-amine] as the molecule, how does the IC50 read?
The IC50 was under 100 nM.

How did the IC50 turn out when `CC1(C)C(=O)Nc2cc(Nc3nc4c(N5CCC(CNCC(F)(F)F)C5)nccn4n3)ccc21` (stereo not drawn) [E65, 3,3-dimethyl-6-(8-{3[(2,2,2-trifluoro-ethylamino)-methyl]-pyrrolidin-1-yl}-[1,2,4]triazolo[1,5-a]pyrazin-2-ylamino)-1,3-dihydro-indol-2-one] was run?
Its IC50 is 100 to 300 nM.

For `CC1(C)C(=O)Nc2cc(Nc3nc4c(N5CCC6(CCNC6=O)CC5)nccn4n3)ccc21` [E13, 8-[2-(3,3-dimethyl-2-oxo-2,3-dihydro-1H-indol-6-ylamino)-[1,2,4]triazolo[1,5-a]pyrazin-8-yl]-2,8-diaza-spiro[4.5]decan-1-one], which IC50 is on record?
The IC50 was under 100 nM.

Which IC50 does the source give for `Cn1cc(-c2nccn3nc(Nc4ccc5c(c4)NS(=O)(=O)C5)nc23)cn1` [E23, (2,2-dioxo-2,3-dihydro-1H-2I6-benzo[c]isothiazol-6-yl)-[8-(1-methyl-1H-pyrazol-4-yl)-[1,2,4]triazolo[1,5-a]pyrazin-2-yl]-amine] here?
Its IC50 is 100 to 300 nM.

How did the IC50 turn out when `CC1(C)C(=O)Nc2cc(Nc3nc4c(C5CCCC5)nccn4n3)ccc21` [E66, 6-(8-cyclopentyl-[1,2,4]triazolo[1,5-a]pyrazin-2-ylamino)-3,3-dimethyl-1,3-dihydro-indol-2-one] was run?
Its IC50 is 300 to 3000 nM.

`CC1(C)C(=O)Nc2cc(Nc3nc4c(N5CC[C@]6(CNC(=O)C6)C5)nccn4n3)ccc21` [E52, 3,3-dimethyl-6-[8-((S)-8-oxo-2,7-diaza-spiro[4.4]non-2-yl)-[1,2,4]triazolo[1,5-a]pyrazin-2-ylamino]-1,3-dihydro-indol-2-one] was tested. Which IC50 did it give?
The IC50 was 100 to 300 nM.

For `COc1ccc(Nc2nc3c(-c4ccccc4-c4ccccc4)nccn3n2)cc1OC` [C5, (8-Biphenyl-2-yl-[1,2,4]triazolo[1,5-a]pyrazin-2-yl)-(3,4-dimethoxy-phenyl)-amine], which IC50 is on record?
The IC50 was 100 to 300 nM.

With `CC(=O)N(C)C1CCN(c2nccn3nc(Nc4ccc5c(c4)NC(=O)C5(C)C)nc23)C1` (stereo not drawn) [E11, N-{1-[2-(3,3-dimethyl-2-oxo-2,3-dihydro-1H-indol-6-ylamino)-[1,2,4]triazolo[1,5-a]pyrazin-8-yl]-pyrrolidin-3-yl}-N-methyl-acetamide] as the molecule, how does the IC50 read?
The IC50 was 300 to 3000 nM.

For `CC1(C)C(=O)Nc2cc(Nc3nc4c(N5CCC6(C5)OCCO6)nccn4n3)ccc21` [E10, 6-[8-(1,4-dioxa-7-aza-spiro[4.4]non-7-yl)-[1,2,4]triazolo[1,5-a]pyrazin-2-ylamino]-3,3-dimethyl-1,3-dihydro-indol-2-one], which IC50 is on record?
Its IC50 is 100 to 300 nM.

For `CC1(C)C(=O)Nc2cc(Nc3nc4c(N5C[C@H](O)C[C@@H]5c5cccc(F)c5)nccn4n3)ccc21` [E64, 6-{8-[(2R,4R)-2-(3-fluoro-phenyl)-4-hydroxy-pyrrolidin-1-yl]-[1,2,4]triazolo[1,5-a]pyrazin-2-ylamino}-3,3-dimethyl-1,3-dihydro-indol-2-one], which IC50 is on record?
Its IC50 is 300 to 3000 nM.

For `CC1(C)C(=O)Nc2cc(Nc3nc4c(N5CCC(S(N)(=O)=O)CC5)nccn4n3)ccc21` [E39, 1-[2-(3,3-dimethyl-2-oxo-2,3-dihydro-1H-indol-6-ylamino)-[1,2,4]triazolo[1,5-a]pyrazin-8-yl]-piperidine-4-sulfonic acid amide], which IC50 is on record?
The IC50 was under 100 nM.

For `CC1(C)CCNc2cc(Nc3nc4c(N5CCC6(CC5)CNC(=O)C6)nccn4n3)ccc21` [E77, 8-[2-(4,4-dimethyl-1,2,3,4-tetrahydro-quinolin-7-ylamino)-[1,2,4]triazolo[1,5-a]pyrazin-8-yl]-2,8-diaza-spiro[4.5]decan-3-one], which IC50 is on record?
The IC50 was under 100 nM.

For `CC1(C)C(=O)Nc2cc(Nc3nc4c(N5CCCc6ccccc65)nccn4n3)ccc21` [E108, 6-[8-(3,4-dihydro-2H-quinolin-1-yl)-[1,2,4]triazolo[1,5-a]pyrazin-2-ylamino]-3,3-dimethyl-1,3-dihydro-indol-2-one], which IC50 is on record?
The IC50 was 300 to 3000 nM.

How did the IC50 turn out when `CC1(C)C(=O)Nc2cc(Nc3nc4c(-c5cc6n(n5)CCOC6)nccn4n3)ccc21` [E132, 6-[8-(6,7-Dihydro-4H-pyrazolo[5,1-c][1,4]oxazin-2-yl)-[1,2,4]triazolo[1,5-a]pyrazin-2-ylamino]-3,3-dimethyl-1,3-dihydro-indol-2-one] was run?
The IC50 was 300 to 3000 nM.

For `CC1(C)CCNc2cc(Nc3nc4c(N5CCC6(CC5)CNC(=O)O6)nccn4n3)ccc21` [E53, 8-[2-(4,4-dimethyl-1,2,3,4-tetrahydro-quinolin-7-ylamino)-[1,2,4]triazolo[1,5-a]pyrazin-8-yl]-1-oxa-3,8-diaza-spiro[4.5]decan-2-one], which IC50 is on record?
Its IC50 is under 100 nM.

How did the IC50 turn out when `CC1(C)C(=O)Nc2cc(Nc3nc4c(N5CCC(COC=O)C5)nccn4n3)ccc21` (stereo not drawn) [E34, formic acid 1-[2-(3,3-dimethyl-2-oxo-2,3-dihydro-1H-indol-6-ylamino)-[1,2,4]triazolo[1,5-a]pyrazin-8-yl]pyrrolidin-3-ylmethyl ester] was run?
Its IC50 is 100 to 300 nM.

With `CN1CCCC(Nc2nccn3nc(Nc4ccc5c(c4)NC(=O)C5(C)C)nc23)C1` (stereo not drawn) [C107, 3,3-dimethyl-6-[8-(1-methyl-piperidin-3-ylamino)[1,2,4]triazolo[1,5-a]yrazin-2-ylamino]-1,3-dihydro-indol-2-one] as the molecule, how does the IC50 read?
The IC50 was 300 to 3000 nM.

`CC1(C)C(=O)Nc2cc(Nc3nc4c(N5CCCC(=O)CC5)nccn4n3)ccc21` [E72, 3,3-dimethyl-6-[8-(4-oxo-azepan-1-yl)-[1,2,4]triazolo[1,5-a]pyrazin-2-ylamino]-1,3-dihydro-indol-2-one] was tested. Which IC50 did it give?
The IC50 was under 100 nM.

`CNS(=O)(=O)C1CCN(c2nccn3nc(Nc4ccc5c(c4)NC(=O)C5(C)C)nc23)CC1` [E38, 1-[2-(3,3-dimethyl-2-oxo-2,3-dihydro-1H-indol-6-ylamino)-[1,2,4]triazolo[1,5-a]pyrazin-8-yl]-piperidine-4-sulfonic acid methylamide] was tested. Which IC50 did it give?
The IC50 was 100 to 300 nM.

`CC1(C)C(=O)Nc2cc(Nc3nc4c(N5CCc6ccc(C(N)=O)cc65)nccn4n3)ccc21` [E131, 1-[2-(3,3-Dimethyl-2-oxo-2,3-dihydro-1H-indol-6-ylamino)-[1,2,4]triazolo[1,5-a]pyrazin-8-yl]-2,3-dihydro-1H-indole-6-carboxylic acid amide] was tested. Which IC50 did it give?
Its IC50 is under 100 nM.

`CC1(C)C(=O)Nc2cc(Nc3nc4c(NCC5CCNCC5)nccn4n3)ccc21` [E91, 3,3-dimethyl-6-{8-[(piperidin-4-ylmethyl)-amino]-[1,2,4]triazolo[1,5-a]pyrazin-2-ylamino}-1,3-dihydro-indol-2-one] was tested. Which IC50 did it give?
The IC50 was under 100 nM.
